Experimental data from ChEMBL document CHEMBL6074653, “Reversal of insulin resistance to combat type 2 diabetes mellitus by newer thiazolidinedione's in fructose induced insulin resistant rats” (Eur J Med Chem, 2024).
Activity calls are given as the source filed them. No cut-off for these calls is given here.

What was measured:
[1] = system: L6; experiment: Induction of glucose uptake in rat L6 cells incubated for 24 hrs by GOD-POD technique; assay type: functional; design: concentration or dose not given beside the values
[2] = Cmax in male Wistar rat at 10 mg/kg, po measured upto 24 hrs; assay type: ADME, organism-based; conditions: in vivo
[3] = Tmax in male Wistar rat at 10 mg/kg, po measured upto 24 hrs; assay type: ADME, organism-based; conditions: in vivo
[4] = AUC (0 to t) in male Wistar rat at 10 mg/kg, po measured upto 24 hrs; assay type: ADME, organism-based; conditions: in vivo
[5] = AUC (0 to infinity) in male Wistar rat at 10 mg/kg, po measured upto 24 hrs; assay type: ADME, organism-based; conditions: in vivo
[6] = Half life in male Wistar rat at 10 mg/kg, po measured upto 24 hrs; assay type: ADME, organism-based; conditions: in vivo
[7] = Acute toxicity in male Wistar rat assessed as body weight gain at 10 mg/kg, po administered for 15 days; assay type: organism-based; conditions: in vivo, 360 h, time 15 day
[8] = system: Rattus norvegicus; experiment: Anti-diabetic activity in fructose-treated male Wistar rat assessed as decrease in fasting blood glucose level at 10 mg/kg, po administered for 15 days; assay type: functional, organism-based; conditions: time 15.0 day
[9] = system: Rattus norvegicus; experiment: Anti-diabetic activity in fructose-treated male Wistar rat assessed as decrease in insulin level at 10 mg/kg, po administered for 15 days by insulin tolerance test; assay type: functional, organism-based; conditions: time 15.0 day
[10] = system: Rattus norvegicus; experiment: Anti-diabetic activity in fructose-treated male Wistar rat assessed as decrease in HOMO-IR level at 10 mg/kg, po administered for 15 days; assay type: functional, organism-based; conditions: time 15.0 day
[11] = system: Rattus norvegicus; experiment: Anti-diabetic activity in fructose-treated male Wistar rat assessed as change in HOMO-IR level at 10 mg/kg, po administered for 15 days; assay type: functional, organism-based; conditions: time 15.0 day
[12] = system: Rattus norvegicus; experiment: Anti-diabetic activity in fructose-treated male Wistar rat assessed as increase in glycogen content in skeletal muscle at 10 mg/kg, po administered for 15 days; assay type: functional, organism-based; conditions: time 15.0 day
[13] = system: Rattus norvegicus; experiment: Anti-diabetic activity in fructose-treated male Wistar rat assessed as increase in glycogen content in liver at 10 mg/kg, po administered for 15 days; assay type: functional, organism-based; conditions: time 15.0 day
[14] = system: Rattus norvegicus; experiment: Anti-diabetic activity in Wistar rat Diaphragm assessed as […] at 10 mg/kg, po administered for 15 days; assay type: functional, organism-based; conditions: time 15.0 day
[15] = system: Rattus norvegicus; experiment: Anti-diabetic activity in fructose-treated male Wistar rat assessed as decrease in triglycerides level at 10 mg/kg, po administered for 15 days (reference value: 140.03 +/-3.55 mg/dL); assay type: functional; conditions: time 15 day
[16] = system: Rattus norvegicus; experiment: Anti-diabetic activity in fructose-treated male Wistar rat assessed as increase in total cholesterol level at 10 mg/kg, po administered for 15 days (reference value: 93.68 +/-1.68 mg/dL); assay type: functional; conditions: time 15 day
[17] = system: Rattus norvegicus; experiment: Anti-diabetic activity in fructose-treated male Wistar rat assessed as increase in HDL level at 10 mg/kg, po administered for 15 days (reference value: 25.35 +/-2.03 mg/dL); assay type: functional; conditions: time 15 day
[18] = system: Rattus norvegicus; experiment: Anti-diabetic activity in fructose-treated male Wistar rat assessed as decrease in VLDL level at 10 mg/kg, po administered for 15 days (reference value: 28 +/-0.28 mg/dL); assay type: functional; conditions: time 15 day
[19] = system: Rattus norvegicus; experiment: Anti-diabetic activity in fructose-treated male Wistar rat assessed as increase in LDL level at 10 mg/kg, po administered for 15 days (reference value: 40.32 +/-1.08 mg/dL); assay type: functional; conditions: time 15 day
[20] = system: Rattus norvegicus; experiment: Anti-diabetic activity in fructose-treated male Wistar rat assessed as decrease in SGOT level at 10 mg/kg, po administered for 15 days (reference value: […]); assay type: functional; conditions: time 15 day
[21] = system: Rattus norvegicus; experiment: Anti-diabetic activity in fructose-treated male Wistar rat assessed as decrease in SGPT level at 10 mg/kg, po administered for 15 days (reference value: […]); assay type: functional; conditions: time 15 day
[22] = system: Rattus norvegicus; experiment: Anti-diabetic activity in fructose-treated male Wistar rat assessed as increase in SOD level in liver at 10 mg/kg, po administered for 15 days (reference value: 13.25 +/-1.35 U/ml); assay type: functional; conditions: time 15 day
[23] = system: Rattus norvegicus; experiment: Anti-diabetic activity in fructose-treated male Wistar rat assessed as increase in CAT level in liver at 10 mg/kg, po administered for 15 days (reference value: 27.65 +/-1.02 U/min); assay type: functional; conditions: time 15 day
[24] = system: Rattus norvegicus; experiment: Anti-diabetic activity in fructose-treated male Wistar rat assessed as decrease in MDA level in liver at 10 mg/kg, po administered for 15 days (reference value: 294.65 +/-11.78 nM/mg ); assay type: functional; conditions: time 15 day
[25] = system: Rattus norvegicus; experiment: Anti-diabetic activity in fructose-treated male Wistar rat assessed as increase in GSH level in liver at 10 mg/kg, po administered for 15 days (reference value: 39.98 +/-0.86 nM/mg ); assay type: functional; conditions: time 15 day
[26] = Retention time of the compound by HPLC analysis; assay type: physicochemical
[27] = Drug recovery in rat plasma at 50 mg/kg, po by HPLC analysis; assay type: ADME, organism-based; conditions: in vivo
[28] = Drug recovery in rat plasma at 100 mg/kg, po by HPLC analysis; assay type: ADME, organism-based; conditions: in vivo
[29] = Drug recovery in rat plasma at 150 mg/kg, po by HPLC analysis; assay type: ADME, organism-based; conditions: in vivo

In the case of `CCc1ccc(CCOc2ccc(CC3SC(=O)NC3=O)cc2)nc1` (centres undefined) [PIOGLITAZONE], the Activity [1] was 82.36%, the Cmax [2] was 3130 ng/mL and the Tmax [3] was 2.69 h. The AUC(0-t) at 24 h [4] was 41500 ng·h/mL, the AUC(0-inf) [5] was 43600 ng·h/mL and the half-life [6] was 295 min. The Activity [7] was “Non-toxic”, the Activity [8] was “Active” and the Activity [9] was “Active”. The Activity [10] was “inactive”, the Activity [11] was “Active” and the Activity [12] was “Active”. The Activity [13] was “Active”, the Activity [14] was “Active” and the Activity [15] was 63.57 mg/dL. It also gave an Activity [16] of 122.79 mg/dL, an Activity [17] of 60.72 mg/dL and an Activity [18] of 12.7 mg/dL. For the same molecule, the Activity [19] was 49.35 mg/dL, the Activity [20] was 32.45 U/L and the Activity [21] was 29.73 U/L. It also gave an Activity [22] of 27.65 U/ml, an Activity [23] of 55.63 U/min and an Activity [24] of 178.35 nM/mg. For the same molecule, the Activity [25] was 77.65 nM/mg, the Retention_time [26] was 2.4 min and the Drug recovery [27] was 97.1%. It also gave a Drug recovery [28] of 97.4% and a Drug recovery [29] of 98%.
